Measured values: patent publication US6703371B1, “Preparations for reducing oxygen consumption during physical efforts” (priority 1999, dated 2004)
Several values for one entry are separate records, joined by “and”; a condition that tells them apart may be missing. Equal entries are not always repeated. Where two headings read alike, the source gives them in different places.

What was measured:
test subject [1] = format: in vivo, human; details: for change in vivo at 1 mg: Homo sapiens, 10 min
test subject [2] = assay: Bicycle ergometer test at 100 W: antagonism between inactive (1st dosage) and active (2nd dosage) substances (Example 1b); format: in vivo, human; details: for Change in the oxygen consumption after 2nd dosage / Average heart rate after 2nd dosage: 2nd dosage 1 mg; for Change in the oxygen consumption after 2nd dosage: relative to after 1st dosage
Description: (§1) 13 to Mar. 6, 1999, with a subject in good physical condition under standard conditions. The subject was required each morning in the fasting state to perform successively (without interruption) at mechanical power output of 100 W, 125 W and 150 W, each lasting 10 minutes (total test duration 30 minutes each time). […] The heat production induced by mechanical exertion was calculated from the changes in the heart rate. An alternative possibility is also to determine it on the basis of the increase in humidity caused by the perspiration (the tests are carried out in a closed room) or reduction in weight (1 g of water=2.26 kJ). […] The values indicated in table la for the “average heart rate” are in each case averages over the 30-minute duration of the test; relative values for the oxygen consumption were established on the basis of the heart rates in a known manner, and the relative values indicated in Table 1a are based on the oxygen consumption on the first day (=100%); the values listed in the column “heat production” in Table 1a give the percentage deviation of the heat production, established on the basis of the perspiration, from the average from all the tests.
(§2) It is known that the oxygen uptake can be determined by measuring the heart rate as a function of the mechanical exertion. This ergometric method is based on establishing the oxygen transport volume through the action of the heart. Since the stroke volume is essentially constant irrespective of the intensity of the mechanical work, and the increased oxygen demand caused by the increase in work results in an increase in the heart rate, the quantity of the transported oxygen can be established by determining the additional heartbeats caused by the work. A 3-stage ergometer as recommended by the World Health Organization (WHO) is used in physiology research institutes and fitness clubs around the world.

test subject [3] = assay: Bicycle ergometer test at 100 W: active ingredient, sucrose, further active ingredient, amino acid/vitamin product (Example 1c); format: in vivo, human; details: for Average heart rate after 4th dos.: 1 mg series, 4th dosage 100 mg of Na glutamate, 0.3 mg of folic acid, 5 μg of cyanocobalamin in 10 mg of gelatin; for Average heart rate after 3rd dos.: 3rd dosage further 1 mg of active ingredient after sucrose; for Average heart rate after 2nd dos.: after 1 mg of active ingredient, then 2nd dosage 2.5 g of sucrose
Description: as §1, §2

[4] = Oxygen-sparing action during physical work, general findings in the description; format: in vivo; details: result in words; for Oxygen demand after administration: even occasionally increased
test subject [5] = details: 125 W
Description: Unless otherwise indicated, the tests each took place in the morning in the fasting state, with mechanical power outputs of 100 W, 125 W or 150 W being required in each case from the test subject during one or more 10-minute test periods. A bicycle ergometer from Ergo Fit (Kaiserslautern, Germany) was used for this, and the required work was controlled at 60 pedal revolutions per minute in each case (controlled by a metronome from Seiko, Japan) by means of an eddy current brake. A heart rate computer from Polar Electro (Kempele, Finland) was used for continuous measurement of the heart rate; the atmospheric pressure was measured by an electronic barograph from Altitude Instrumentation (Paris, France) with a resolution of 0.1 mbar; the temperature and relative humidity were measured by an electronic thermohygrometer. The “average heart rates” indicated in the tables are in each case averages of the particular test period. The test subject received a high-carbohydrate diet mainly composed of pasta, and meat of young animals (veal, chicken, fish) in order to ensure an adequate supply of protein, throughout the series of tests. Only 1 test was carried out on each day.
Only 1 test was carried out on each day.

test subject [6] = assay: Bicycle ergometer test at 100 W: active ingredient, sucrose, further active ingredient, amino acid/vitamin product (Example 1c); format: in vivo, human; details: for Change in oxygen consumption after 2nd dos. / Change in oxygen consumption after 4th dos.: 1 mg series; for Change in oxygen consumption after 2nd dos.: 2nd dosage 2.5 g of sucrose; for Change in oxygen consumption after 2nd dos. / Change in oxygen consumption after 4th dos. / Change in oxygen consumption after 3rd dos.: relative to preceding dosage; for Change in oxygen consumption after 4th dos.: 4th dosage Na glutamate/folic acid/cyanocobalamin/gelatin; for Average heart rate after 1st dos.: 1st dosage 1 mg as dilute aqueous solution, 10-minute test at 100 W; for Change in oxygen consumption after 3rd dos.: 3rd dosage further 1 mg of active ingredient
test subject [7] = assay: Bicycle ergometer test at 100 W with gelatin products (Example 7); format: in vivo, human
Description: In tests analogous to Example 1, the tests indicated in Table 7 were carried out with gelatin products which were produced in analogy to Examples 3-5. After a warm-up period of 5 minutes in each case firstly the heartbeats were recorded at a mechanical power output of 100 W during a 10-minute control test, then the 1st dosage was administered and immediately thereafter the heart rate was measured in a 10-minute test period with a power output of 100 W. In the case of a 2nd dosage, this further administration and a second 10-minute test period take place with a power output of 100 W immediately following the first test period.

[8] = read-out: Change in the oxygen demand
[9] = read-out: Heat production (deviation from the average of all the tests)

Row | SMILES | change in vivo at 1 mg (test subject [1]; [8]) [%] | change in vivo at 1 mg (test subject [1]; [9]) [%] | Average heart rate after 4th dos. (test subject [3]) [per minute] | Average heart rate after 3rd dos. (test subject [3]) [per minute] | Average heart rate after 2nd dos. (test subject [3]) [per minute] | Suitability for reducing the oxygen consumption during physical work [4] | Change in oxygen consumption after 2nd dos. (test subject [6]) | Change in oxygen consumption after 4th dos. (test subject [6]) [%] | Average heart rate after 1st dos. (test subject [6]) [per minute] | Change in oxygen consumption after 3rd dos. (test subject [6]) | Oxygen demand after administration [4] | further results
1 | CN1C(=O)CN=C(c2ccccc2)c2cc(Cl)ccc21 [diazepam] | -44 | -50 | 86.3 | 113.1 | 111.9 | suitable | +74% | −54 | 74.8 | +2% |  | Change in the oxygen consumption after 2nd dosage (test subject [2]; after 3 mg of bromazepam, 100 W): −65%; Change in the oxygen consumption after 2nd dosage (test subject [2]; after 7 mg of oxazepam, 100 W): −72%; Change in the oxygen consumption after 2nd dosage (test subject [2]; after 10 mg of nitrazepam, 100 W): −59%; Average heart rate after 2nd dosage (test subject [2]; after 1st dosage of 3 mg of bromazepam, 100 W): 97.0 per minute; Average heart rate after 2nd dosage (test subject [2]; after 1st dosage of 7 mg of oxazepam, 100 W): 89.4 per minute; Average heart rate after 2nd dosage (test subject [2]; after 1st dosage of 10 mg of nitrazepam, 100 W): 102.1 per minute; Average heart rate (test subject [5]; 1 mg, atmospheric pressure 1010.0 mbar): 80 per minute; Average heart rate (test subject [5]; 1 mg, atmospheric pressure 1010.8 mbar): 71 per minute; Average heart rate (test subject [5]; 1 mg, atmospheric pressure 1015.2 mbar): 77 per minute; Average heart rate (test subject [5]; 1 mg, atmospheric pressure 1015.9 mbar): 72 per minute; Average heart rate (test subject [5]; 1 mg, atmospheric pressure 1017.4 mbar): 74 per minute; Average heart rate (test subject [5]; 1 mg, atmospheric pressure 1017.5 mbar): 72 per minute; Average heart rate (test subject [5]; 1 mg, atmospheric pressure 1021.7 mbar): 76 per minute; Average heart rate (test subject [5]; 1 mg, atmospheric pressure 1026.3 mbar): 75 per minute; Average heart rate (test subject [5]; 2 mg, atmospheric pressure 1005.9 mbar): 76 per minute; Average heart rate (test subject [5]; 2 mg, atmospheric pressure 1007.8 mbar): 79 per minute; Effect of low atmospheric pressure on heart rate and oxygen consumption (test subject [5]; result in words): can be compensated
2 | Cc1ncc2n1-c1ccc(Cl)cc1C(c1ccccc1F)=NC2 [midazolam] | -42 |  | 83.2 | 112.1 | 110.9 | suitable | +70% | −58 | 75.9 | +2% |  | Effect on the heart rate, the oxygen consumption and the heat production (test subject [1]; low dosage, 125 W, result in words): marked reduction in the heart rate, the oxygen consumption and the heat production
3 | O=C1CN=C(c2ccccc2)c2cc([N+](=O)[O-])ccc2N1 [nitrazepam] | 0 | 7 |  |  |  |  |  |  |  |  | not reduced | Average heart rate after 1st dosage (test subject [2]; 1st dosage 10 mg in 20 ml of water, 10-minute test at 100 W): 131.4 per minute; change in vivo at 10 mg (test subject [2]; Homo sapiens, 1st dosage 10 mg, 100 W, read-out: Change in the oxygen consumption after 1st dosage): 21%
4 | CC(CN(C)C)CN1c2ccccc2CCc2ccccc21 (stereo not drawn) [trimipramine] |  |  |  |  |  |  |  |  |  |  | not reduced | Average heart rate after 1st dos. (test subject [7]; 1st dosage 12.5 mg, 100 W): 101.7 per minute and 97.0 per minute; Average heart rate before (test subject [7]; 10-minute control test at 100 W before the 1st dosage): 79.8 per minute and 81.7 per minute
